We go through seven molecules from PMC9569578, “In Planta, In Vitro and In Silico Studies of Chiral N^6-Benzyladenine Derivatives: Discovery of Receptor-Specific S-Enantiomers with Cytokinin or Anticytokinin Activities” (International Journal of Molecular Sciences, 2022).

Holding throughout (assay): radioligand competition with 3H-isopentenyladenine, plant microsomes
What all share (assay type): binding
Holding throughout (details): 1 µM compound vs 3H-iP (2 pmol per sample), membranes of N. benthamiana
On the technique in general: In a radioligand displacement assay an active substance lowers the binding of a labelled ligand.

For experiment [1], the target named is T1, AHK2 (Arabidopsis thaliana, UniProt Q9C5U2).
T1 construct: receptor fused with GFP, transiently expressed in Nicotiana benthamiana leaves; microsomal membranes
T1 sequence (Q9C5U2 1-1176): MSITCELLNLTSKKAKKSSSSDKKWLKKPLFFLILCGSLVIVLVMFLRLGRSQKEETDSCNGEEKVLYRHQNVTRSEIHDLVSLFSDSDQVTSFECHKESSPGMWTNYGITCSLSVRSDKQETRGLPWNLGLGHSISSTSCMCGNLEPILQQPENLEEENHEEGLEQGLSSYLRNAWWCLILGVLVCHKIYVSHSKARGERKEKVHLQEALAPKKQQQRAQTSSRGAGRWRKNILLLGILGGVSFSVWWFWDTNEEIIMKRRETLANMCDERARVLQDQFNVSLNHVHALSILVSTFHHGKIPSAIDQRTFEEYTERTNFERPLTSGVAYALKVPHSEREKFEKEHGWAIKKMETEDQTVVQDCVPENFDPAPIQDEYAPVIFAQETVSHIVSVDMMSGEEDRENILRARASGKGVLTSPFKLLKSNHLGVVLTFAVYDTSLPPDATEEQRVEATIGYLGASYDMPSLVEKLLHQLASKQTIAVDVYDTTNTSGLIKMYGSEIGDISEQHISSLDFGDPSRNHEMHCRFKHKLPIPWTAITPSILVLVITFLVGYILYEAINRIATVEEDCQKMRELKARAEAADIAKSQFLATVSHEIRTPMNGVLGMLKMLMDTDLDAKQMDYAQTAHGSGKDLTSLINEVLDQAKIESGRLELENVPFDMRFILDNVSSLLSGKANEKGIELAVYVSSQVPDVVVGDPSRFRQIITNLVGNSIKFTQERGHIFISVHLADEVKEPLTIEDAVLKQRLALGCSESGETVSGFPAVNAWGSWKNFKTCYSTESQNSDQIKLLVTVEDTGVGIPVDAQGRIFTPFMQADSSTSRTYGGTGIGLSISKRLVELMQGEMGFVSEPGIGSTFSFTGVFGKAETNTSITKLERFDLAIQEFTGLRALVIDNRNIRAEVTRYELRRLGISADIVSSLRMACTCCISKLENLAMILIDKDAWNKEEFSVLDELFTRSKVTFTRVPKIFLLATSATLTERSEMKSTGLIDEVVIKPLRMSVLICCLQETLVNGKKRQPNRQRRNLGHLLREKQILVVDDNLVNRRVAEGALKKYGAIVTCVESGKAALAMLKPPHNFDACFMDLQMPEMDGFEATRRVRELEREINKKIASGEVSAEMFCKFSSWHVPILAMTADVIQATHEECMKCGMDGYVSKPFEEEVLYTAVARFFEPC
An excerpt: radioligand competition with 3H-isopentenyladenine, plant microsomes on AHK2

For experiment [2], the target named is T2, AHK3 (Arabidopsis thaliana, UniProt Q9C5U1).
T2 construct: receptor fused with GFP, transiently expressed in Nicotiana benthamiana leaves; microsomal membranes
T2 sequence (Q9C5U1 1-1036): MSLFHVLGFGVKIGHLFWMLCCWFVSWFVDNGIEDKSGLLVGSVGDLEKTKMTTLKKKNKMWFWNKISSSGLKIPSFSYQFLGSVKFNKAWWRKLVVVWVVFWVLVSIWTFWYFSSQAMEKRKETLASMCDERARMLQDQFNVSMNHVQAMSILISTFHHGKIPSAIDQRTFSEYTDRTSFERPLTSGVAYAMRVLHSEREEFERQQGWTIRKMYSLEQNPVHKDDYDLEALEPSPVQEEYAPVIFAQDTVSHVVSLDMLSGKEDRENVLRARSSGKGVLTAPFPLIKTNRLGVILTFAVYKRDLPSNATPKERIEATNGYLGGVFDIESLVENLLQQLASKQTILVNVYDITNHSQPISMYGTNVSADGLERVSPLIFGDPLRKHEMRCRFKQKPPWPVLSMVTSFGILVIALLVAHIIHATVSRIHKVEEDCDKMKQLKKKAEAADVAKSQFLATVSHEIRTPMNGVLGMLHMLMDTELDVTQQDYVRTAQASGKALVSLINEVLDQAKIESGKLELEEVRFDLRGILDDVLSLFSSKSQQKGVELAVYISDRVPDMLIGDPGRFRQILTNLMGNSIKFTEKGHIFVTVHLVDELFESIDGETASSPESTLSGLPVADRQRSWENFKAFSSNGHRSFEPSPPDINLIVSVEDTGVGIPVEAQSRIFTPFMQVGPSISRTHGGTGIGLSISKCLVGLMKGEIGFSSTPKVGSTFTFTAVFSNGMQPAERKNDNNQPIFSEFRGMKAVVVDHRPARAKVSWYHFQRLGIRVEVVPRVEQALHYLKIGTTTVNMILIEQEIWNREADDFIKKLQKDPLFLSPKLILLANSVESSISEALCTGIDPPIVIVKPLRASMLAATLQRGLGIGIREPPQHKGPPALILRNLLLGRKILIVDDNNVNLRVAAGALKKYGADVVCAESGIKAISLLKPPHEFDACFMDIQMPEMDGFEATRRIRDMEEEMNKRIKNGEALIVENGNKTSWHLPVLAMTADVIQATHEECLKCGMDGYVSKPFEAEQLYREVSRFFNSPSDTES
An excerpt: radioligand competition with 3H-isopentenyladenine, plant microsomes on AHK3

The target in experiment [3] is T3, CRE1/AHK4 (Arabidopsis thaliana, UniProt Q9C5U0).
T3 construct: receptor fused with GFP, transiently expressed in Nicotiana benthamiana leaves; microsomal membranes
T3 sequence (Q9C5U0 whole entry, the tested form may be a part): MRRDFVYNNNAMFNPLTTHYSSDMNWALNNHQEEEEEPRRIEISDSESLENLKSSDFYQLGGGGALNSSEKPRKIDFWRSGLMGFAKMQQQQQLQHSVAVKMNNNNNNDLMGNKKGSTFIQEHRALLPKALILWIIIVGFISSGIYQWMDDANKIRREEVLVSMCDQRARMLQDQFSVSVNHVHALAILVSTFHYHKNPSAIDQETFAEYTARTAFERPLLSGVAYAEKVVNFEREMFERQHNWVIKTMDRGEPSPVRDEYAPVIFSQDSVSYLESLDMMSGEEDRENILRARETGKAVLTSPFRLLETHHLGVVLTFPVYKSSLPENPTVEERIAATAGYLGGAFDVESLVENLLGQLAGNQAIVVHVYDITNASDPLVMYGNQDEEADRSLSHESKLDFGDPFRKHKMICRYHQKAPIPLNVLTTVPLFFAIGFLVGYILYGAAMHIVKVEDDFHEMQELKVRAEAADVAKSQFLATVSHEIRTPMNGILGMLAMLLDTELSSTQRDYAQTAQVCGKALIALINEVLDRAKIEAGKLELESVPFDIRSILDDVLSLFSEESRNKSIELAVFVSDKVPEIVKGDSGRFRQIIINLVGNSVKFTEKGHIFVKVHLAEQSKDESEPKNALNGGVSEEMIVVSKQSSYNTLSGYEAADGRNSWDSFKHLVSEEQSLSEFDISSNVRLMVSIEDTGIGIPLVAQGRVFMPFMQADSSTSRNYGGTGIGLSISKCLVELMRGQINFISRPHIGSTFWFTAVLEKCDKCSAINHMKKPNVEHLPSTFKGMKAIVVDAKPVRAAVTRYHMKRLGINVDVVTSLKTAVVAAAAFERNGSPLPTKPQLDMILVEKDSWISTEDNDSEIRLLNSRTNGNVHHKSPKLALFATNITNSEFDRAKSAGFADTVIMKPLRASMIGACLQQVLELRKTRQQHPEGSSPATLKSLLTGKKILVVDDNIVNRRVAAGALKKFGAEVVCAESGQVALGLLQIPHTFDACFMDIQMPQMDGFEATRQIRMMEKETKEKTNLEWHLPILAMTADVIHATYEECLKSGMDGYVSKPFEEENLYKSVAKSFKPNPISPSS
An excerpt:
radioligand competition with 3H-isopentenyladenine, plant microsomes on CRE1/AHK4

As for `C[C@@H](Nc1ncnc2[nH]cnc12)c1ccccc1` [5a, N^6-((R)-α-methylbenzyl) adenine], the “АНК2 / 1 μM” value in experiment [1] came to 88.9 ± 0.5%. Besides, the “АНК3 / 1 μM” value in experiment [2] was 97.7 ± 1.0%. In experiment [3], the “CRE1/AHK4 / 1 μM” value is 87.7 ± 1.0%.

`C[C@H](Nc1ncnc2[nH]cnc12)c1ccccc1` [5b, N^6-((S)-α-methylbenzyl) adenine]: in experiment [1], the “АНК2 / 1 μM” value is reported as 8.9 ± 4.9%. In addition, in experiment [2], the “АНК3 / 1 μM” value came out at 46.5 ± 2.2%.

With `C[C@@H](Nc1nc(F)nc2[nH]cnc12)c1ccccc1` [6a, 2-fluoro,N^6-((R)-α-methylbenzyl) adenine], the “АНК2 / 1 μM” value in experiment [1] amounted to 92.1 ± 1.0%. The “АНК3 / 1 μM” value in experiment [2] came to 99.8 ± 1.5%. In experiment [3], the “CRE1/AHK4 / 1 μM” value was 97.2 ± 0.9%.

With `C[C@H](Nc1nc(F)nc2nc[nH]c12)c1ccccc1` [6b, 2-fluoro,N^6-((S)-α-methylbenzyl) adenine], the “АНК2 / 1 μM” value in experiment [1] worked out at 8.7 ± 0.9%. In experiment [2], the “АНК3 / 1 μM” value is reported as 74.7 ± 1.7%. The “CRE1/AHK4 / 1 μM” value in experiment [3] is reported as 45.8 ± 0.3%.

For the molecule `C[C@@H](Nc1nc(Cl)nc2[nH]cnc12)c1ccccc1` [7a, 2-chloro,N^6-((R)-α-methylbenzyl) adenine], the “АНК2 / 1 μM” value in experiment [1] is listed as 42.6 ± 0.4%. Further, in experiment [2], the “АНК3 / 1 μM” value worked out at 88.9 ± 0.7%. Besides, in experiment [3], the “CRE1/AHK4 / 1 μM” value is 74.1 ± 1.6%.

Consider `C[C@H](Nc1nc(Cl)nc2[nH]cnc12)c1ccccc1` [7b, 2-chloro,N^6-((S)-α-methylbenzyl) adenine], for which the “АНК2 / 1 μM” value in experiment [1] was found to be 3.1 ± 0.4%. Further, in experiment [2], the “АНК3 / 1 μM” value is listed as 80.6 ± 1.5%. The “CRE1/AHK4 / 1 μM” value in experiment [3] was 37.1 ± 1.2%.

In the case of `C[C@@H](Nc1nc(N)nc2[nH]cnc12)c1ccccc1` [8a, 2-amino,N^6-((R)-α-methylbenzyl) adenine], the “АНК2 / 1 μM” value in experiment [1] came out at 58.8 ± 1.3%. In addition, the “АНК3 / 1 μM” value in experiment [2] is 54.7 ± 1.1%. Also, the “CRE1/AHK4 / 1 μM” value in experiment [3] was found to be 30.4 ± 1.0%.
